Test results reported in the NIST ThermoML archive (doi:10.1016/j.jct.2015.03.011).
Several values for one entry are separate records, joined by “and”; a condition that tells them apart may be missing. Identical values can stand only once.

Details: Liquid, Transpiration method

CC(C)(N)CN [2-methyl-1,2-propanediamine]
Details	vapor or sublimation pressure
276 K	0.2878 kPa
276.6 K	0.3031 kPa
277.6 K	0.3267 kPa
278.1 K	0.3442 kPa
279.3 K	0.3687 kPa
280.6 K	0.405 kPa
282.4 K	0.4569 kPa and 0.4785 kPa
283.2 K	0.492 kPa
284.5 K	0.548 kPa and 0.5301 kPa
286 K	0.5853 kPa
288.4 K	0.7053 kPa
290.4 K	0.7971 kPa
292.5 K	0.9233 kPa
294.3 K	1.052 kPa
295.9 K	1.144 kPa
297.2 K	1.299 kPa
299 K	1.422 kPa
300.3 K	1.575 kPa
302 K	1.752 kPa
304.6 K	2.037 kPa
306.1 K	2.247 kPa
307.6 K	2.451 kPa
308.7 K	2.62 kPa

CC(N)CN (stereo unspecified) [1,2-propanediamine]
Details	vapor or sublimation pressure [kPa]
273.8 K	0.2726
274.9 K	0.2967
276.6 K	0.3411
277 K	0.3482
279.1 K	0.4011
279.7 K	0.4205
281.3 K	0.4594
282.7 K	0.5281
283.2 K	0.5245
285.3 K	0.6214
285.7 K	0.6306
287.3 K	0.72
288.7 K	0.7897
289.2 K	0.8316
291.2 K	0.9464
291.7 K	0.9537
293.1 K	1.069
294.7 K	1.187
295.2 K	1.234
297.1 K	1.357
297.6 K	1.422
299.1 K	1.559
299.6 K	1.629
301.2 K	1.82
301.7 K	1.84
303.2 K	2.075
303.7 K	2.099
305.7 K	2.354
